According to patent US6949516B2, “Dipeptide apoptosis inhibitors and the use thereof” (Cytovia, Inc., priority 1997, dated 2005):

Key:
HeLa cells = assay: Cell death assay with HeLa cells, qualitative (phase contrast microscopy), TNF-α/CHX challenge; assay type: cell-based; settings: for cytoprotection of HeLa cells from apoptotic effects of TNF-α and CHX (microscopy): 24 hour incubation
Protocol: The cytoprotective properties of Cbz-Val-Asp(OMe)CH2F were tested using HeLa cells challenged with tumor necrosis factor-alpha (TNF-α) and cycloheximide (CHX). This is a well-characterized cell culture model of apoptosis which is commonly used to analyze anti-apoptotic agents. Two types of experiments were performed: a qualitative assessment of cell death by visualization of the cells using phase contrast microscopy; and a quantitative assessment of cell death using the fluorescent dye calcein AM.
For photomicroscopy, HeLa cells are seeded in 12-well multidishes at a density of 100,000 cells per well in Minimal Essential Medium containing 2 mM glutamine and 10% fetal bovine serum. 24 hours later the plating medium is removed and fresh medium is added containing the cytoprotective test compound at various concentrations. The cells are pre-incubated with test compound for 2 hours at 37° C. in a CO2 incubator and then TNF-α and CHX are added at final concentrations of 25 ng/mL and 30 μg/mL, respectively. After a 24 hour incubation period, the cells are examined visually for evidence of cell death based on cell shape and degree of adherence. Cells are considered dead if they have become rounded up and phase bright and have detached from the substratum. Cells are considered alive if they have retained their normal morphology and remain attached to the substratum.
All of these compounds are the methyl ester derivatives. […] At 50 μM, the related peptides BOC-Asp(OMe)-CH2F (FIG. 1C) and Cbz-Glu(OMe)-Val-Asp(OMe)-CH2F (FIG. 1E) are also protective.

Caspase-6 = target: T1, Caspase-6 (Homo sapiens, UniProt P55212); assay: Recombinant caspase assay with Ac-DEVD-AMC, caspase-6; assay type: biochemical; settings: 10 μM Ac-DEVD-AMC, 30 minutes at 37° C.
T1 construct: purchased PharMington (PharMingen, a Becton division company, San Diego, Calif.)
T1 sequence (P55212 24-179 limits assumed): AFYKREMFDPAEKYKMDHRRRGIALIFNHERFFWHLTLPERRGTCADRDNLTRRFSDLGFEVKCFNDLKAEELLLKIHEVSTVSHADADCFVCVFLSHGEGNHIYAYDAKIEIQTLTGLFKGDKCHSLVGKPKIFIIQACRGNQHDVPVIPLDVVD
Protocol: (§1) The inhibitory activity of Cbz-Val-Asp-CH2F in recombinant caspase 3, 6, 7 and 8 obtained from PharMington (a Becton division company, San Diego, Calif.) were measured using Ac-DEVD-AMC (SEQ ID NO:1). The amount of each enzyme per assay was as following: 1 ng caspase3, 15 ng caspase6, 2 ng caspase7 and 60 ng caspase8. The enzyme reaction was conducted in 96-well plate using a caspase buffer (20 mM PIPES, 100 mM NaCl, 10 mM DTT, 1 mM EDTA, 0.1% CHAPS and 10% sucrose, pH 7.2) and the reaction was initiated by adding 10 μM Ac-DEVD-AMC (SEQ ID NO:1) (purchased from Quality Controlled Biochemicals, Inc. Hopkinton, Mass.). Twelve concentrations of Cbz-Val-Asp-CH2F ranged from 30 μM to […] were tested after incubation of the compound with recombinant caspases for 30 minutes at 37° C. […] The data was analyzed using GraphPrism software.

Caspase-8 = target: T2, Caspase-8 (Homo sapiens, UniProt Q14790); assay: Recombinant caspase assay with Ac-DEVD-AMC, caspase-8; assay type: biochemical; settings: 10 μM Ac-DEVD-AMC, 30 minutes at 37° C.
T2 construct: purchased PharMington (PharMingen, a Becton division company, San Diego, Calif.)
Protocol: as §1

Caspase-3 = target: T3, Caspase-3 (Homo sapiens, UniProt P42574); assay: Caspase-3 activity of the dipeptide inhibitors (Table III); assay type: biochemical
T3 sequence (P42574 29-175 limits assumed): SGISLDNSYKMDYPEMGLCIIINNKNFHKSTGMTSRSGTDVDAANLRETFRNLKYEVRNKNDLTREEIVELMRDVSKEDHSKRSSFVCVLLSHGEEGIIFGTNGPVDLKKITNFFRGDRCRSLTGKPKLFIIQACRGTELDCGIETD

[1] = test system: mouse liver apoptosis model; assay: Mouse liver apoptosis model (antiFas-induced lethality); assay type: in vivo; settings: mice
Protocol: The in vivo activity of the cell death inhibitors of the invention can be tested using the “mouse liver apoptosis” model described by Rodriguez et al. (Rodriguez et al., J. Exp. Med., 184:2067-2072 (1996)). In this model, mice are treated intravenously (IV) with an antiFas antibody which induces massive apoptosis in the liver and other organs, leading to generalized organ failure and death. This model is useful for indirectly testing the systemic bioavailability of the cell death inhibitors of the invention, as well as their in vivo anti-apoptotic properties. The cell death inhibitors of the invention therefore can be used to reduce or prevent apoptosis of liver cells (Jones et al. Hepatology 27: 1632-42 (1998)) such as in sepsis (Jaeschke et al. J. Immunol. 160: 3480-3486 (1998)) and hereditary tyrosinemia type 1 (HT1) (Kubo et al. Prov. Natl. Acad Sci. USA, 95: 9552-9557 (1998). The cell death inhibitors of the invention also can be used to treat hepatitis (Suzuki, Proc. Soc. Exp. Biol. Med. 217: 450-454 (1998)).
Three to four week old female mice were used in the studies. Liver degeneration was induced by intravenous injection with 2-6 μg of a purified hamster anti-mouse Fas monoclonal antibody (clone Jo2, Pharmingen) against mouse Fas antigen diluted in 80 μl of phosphate buffered physiological saline (Rodriguez, et al., 1996). Mortality was used as the end point to assess liver degeneration. Cbz-Val-Asp-CH2F was formulated in Tris buffer for intravenous infusion and tested at a dose of 1-10 mg/kg given IV via the tail vein. Ten minutes later, animals were injected with Fas antibody. Mortality was counted at 30 mins, 1, 3 and 24 h. For each compound there were groups of control animals that receive Fas antibody only.

T2 sequence (Q14790 217-374 limits assumed): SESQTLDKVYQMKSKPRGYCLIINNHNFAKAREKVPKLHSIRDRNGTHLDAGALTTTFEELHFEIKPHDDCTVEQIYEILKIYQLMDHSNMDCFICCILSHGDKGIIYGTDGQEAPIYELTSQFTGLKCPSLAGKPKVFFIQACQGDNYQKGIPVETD

COC(=O)CC(NC(=O)C(NC(=O)OCc1ccccc1)C(C)C)C(=O)CF (stereo not drawn) [Cbz-Val-Asp(OMe)-CH2F, Z-Val-Asp-fmk Methyl Ester] was tested, and the “cytoprotection of HeLa cells from apoptotic effects of TNF-α and CHX (microscopy)” value (shortened to “cytoprotection of HeLa cells”) (HeLa cells; 0.5 μM) was “still an effective cytoprotectant”, the “cytoprotection of HeLa cells” value (HeLa cells; 5 μM) was “surprisingly strong cytoprotective action” and the “cytoprotection of HeLa cells” value (HeLa cells; 50 μM) was “completely protects”. For the same compound, the “protective concentration, fold lower than other putative anti-apoptotic agents” value (HeLa cells; HeLa cells, TNF-α/CHX-induced apoptosis) was 10 to 100 fold.
For CC(C)[C@H](NC(=O)OCc1ccccc1)C(=O)NC(CC(=O)O)C(=O)CF (stereo partly drawn) [Cbz-Val-Asp-CH2F, Z-Val-Asp-fmk], the IC50 (Caspase-6) was 18.4 nM, the IC50 (Caspase-8) was 7.2 nM and the IC50 (Caspase-3) was 40 nM. The “induction of the liver enzymes SPGT and SGOT” value ([1]; antiFas, separate studies) was “attenuation”, the “protection from antiFas-induced lethality” value ([1]; single 1 mg/kg IV dose, up to 1 h after antibody administration) was “completely protected” and the survival ([1]; up to 24 h after antiFas) was 28%.
